Laboratory results reported in patent US12655116B2, “Substituted isophthalic acid diamides” (Bayer Aktiengesellschaft, priority 2020, dated 2026).

How the values were obtained:
ECHCG [1] = assay: Pre-emergence herbicidal action against ECHCG; assay type: in vivo, Echinochloa crus-galli; conditions: Echinochloa crus-galli, 504 h, 80 g/ha
Procedure, shortened: (§1)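 Pre-emergence soil-surface spray of formulated compound (WP or EC; 600 to 800 l/ha; 0.2% wetting agent) over seeds sown in sandy loam. After 3 weeks under greenhouse conditions, damage is estimated visually in percent against untreated plants.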

DIGSA [2] = assay: Pre-emergence herbicidal action against DIGSA; assay type: in vivo, Digitaria sanguinalis; conditions: Digitaria sanguinalis, 504 h; for pest or weed control at 20 g/ha: dosage 20 g/ha; for pest or weed control at 80 g/ha: dosage 80 g/ha
Procedure, shortened: as §1

DIGSA [3] = assay: Post-emergence herbicidal action against DIGSA; assay type: in vivo, Digitaria sanguinalis; conditions: Digitaria sanguinalis, 504 h
Procedure, shortened: (§2)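 Greenhouse plants in sandy loam were sprayed at the one-leaf stage, 2 to 3 weeks after sowing, with WP or EC formulations as aqueous suspension or emulsion (600 to 800 l/ha water, 0.2% wetting agent). Visual damage was scored about 3 weeks later versus untreated controls, 0% = like control, 100% = dead.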

SETVI = assay: Pre-emergence herbicidal action against SETVI; assay type: in vivo, Setaria viridis; conditions: Setaria viridis, 504 h; for pest or weed control at 20 g/ha: dosage 20 g/ha; for pest or weed control at 80 g/ha: dosage 80 g/ha
Procedure, shortened: as §1

AMARE [4] = assay: Pre-emergence herbicidal action against AMARE; assay type: in vivo, Amaranthus retroflexus; conditions: Amaranthus retroflexus, 504 h, scored visually after 3 weeks vs untreated controls, 100% = plants have died, 0% = like control plants
Procedure, shortened: as §1

VIOTR [5] = assay: Post-emergence herbicidal action against VIOTR; assay type: in vivo, Viola tricolor; conditions: Viola tricolor, 504 h
Procedure, shortened: as §2

MATIN [6] = assay: Pre-emergence herbicidal action against MATIN; assay type: in vivo, Matricaria inodora; conditions: Tripleurospermum inodorum, 504 h; for pest or weed control at 20 g/ha: dosage 20 g/ha; for pest or weed control at 80 g/ha: dosage 80 g/ha
Procedure, shortened: as §1

ECHCG [7] = assay: Post-emergence herbicidal action against ECHCG; assay type: in vivo, Echinochloa crus-galli; conditions: Echinochloa crus-galli, 504 h, dosage 20 g/ha
Procedure, shortened: as §2

VERPE [8] = assay: Pre-emergence herbicidal action against VERPE; assay type: in vivo, Veronica persica; conditions: Veronica persica, 504 h, dosage 80 g/ha
Procedure, shortened: as §1

VIOTR [9] = assay: Pre-emergence herbicidal action against VIOTR; assay type: in vivo, Viola tricolor; conditions: Viola tricolor, 504 h; for pest or weed control at 20 g/ha: dosage 20 g/ha; for pest or weed control at 80 g/ha: dosage 80 g/ha
Procedure, shortened: as §1

PHBPU [10] = assay: Pre-emergence herbicidal action against PHBPU; assay type: in vivo, Pharbitis purpurea; conditions: Ipomoea purpurea, 504 h, dosage 80 g/ha
Procedure, shortened: as §1

ABUTH [11] = assay: Pre-emergence herbicidal action against ABUTH; assay type: in vivo, Abutilon theophrasti; conditions: Abutilon theophrasti, 504 h; for pest or weed control at 80 g/ha: scored visually after 3 weeks vs untreated controls (100% = plants have died, 0% = like control plants); for pest or weed control at 20 g/ha: dosage 20 g/ha, scored visually after 3 weeks vs untreated controls, 100% = plants have died, 0% = like control plants, read-out: Pre-emergence action against ABUTH (herbicidal activity in percent)
Procedure, shortened: as §1

PHBPU [12] = assay: Post-emergence herbicidal action against PHBPU; assay type: in vivo, Pharbitis purpurea; conditions: Ipomoea purpurea, 504 h
Procedure, shortened: as §2

VERPE [13] = assay: Post-emergence herbicidal action against VERPE; assay type: in vivo, Veronica persica; conditions: Veronica persica, 504 h, 20 g/ha
Procedure, shortened: as §2

ABUTH [14] = assay: Post-emergence herbicidal action against ABUTH; assay type: in vivo, Abutilon theophrasti; conditions: Abutilon theophrasti, 504 h, visual assessment about 3 weeks after treatment vs untreated controls; for pest or weed control at 5 g/ha: dosage 5 g/ha; for pest or weed control at 20 g/ha: dosage 20 g/ha
Procedure, shortened: as §2

MATIN [15] = assay: Post-emergence herbicidal action against MATIN; assay type: in vivo, Matricaria inodora; conditions: Tripleurospermum inodorum, 504 h
Procedure, shortened: as §2

AVEFA = assay: Pre-emergence herbicidal action against AVEFA; assay type: in vivo, Avena fatua; conditions: Avena fatua, 504 h; 80 g/ha, pre-emergence
Procedure, shortened: as §1

ALOMY = assay: Pre-emergence herbicidal action against ALOMY; assay type: in vivo, Alopecurus myosuroides; conditions: Alopecurus myosuroides, 504 h, pre-emergence
Procedure, shortened: as §1

AMARE [16] = assay: Post-emergence herbicidal action against AMARE; assay type: in vivo, Amaranthus retroflexus; conditions: Amaranthus retroflexus, 504 h, 20 g/ha, visual assessment about 3 weeks after treatment, 100% = plants have died, 0% = like control plants
Procedure, shortened: as §2

`CCNC(=O)c1c(C(F)(F)F)ccc(C(=O)Nc2nnnn2C)c1C1CC1` [Example 1-287] was tested, and the pest or weed control at 80 g/ha (ECHCG [1]) was 90%, the pest or weed control at 20 g/ha (DIGSA [2]) was 100% and the pest or weed control at 80 g/ha (DIGSA [2]) was 100%. It also gave a pest or weed control at 5 g/ha (DIGSA [3]; 5 g/ha) of 100%, a pest or weed control at 20 g/ha (DIGSA [3]) of 100% and a pest or weed control at 20 g/ha (SETVI) of 90%. The pest or weed control at 80 g/ha (SETVI) was 100%, the pest or weed control at 20 g/ha (AMARE [4]) was 100% and the pest or weed control at 80 g/ha (AMARE [4]) was 100%. It also gave a pest or weed control at 20 g/ha (VIOTR [5]) of 80%, a pest or weed control at 20 g/ha (MATIN [6]) of 100% and a pest or weed control at 80 g/ha (MATIN [6]) of 100%. It also gave a pest or weed control at 20 g/ha (ECHCG [7]) of 100%, a pest or weed control at 80 g/ha (VERPE [8]) of 90% and a pest or weed control at 20 g/ha (VIOTR [9]) of 100%. It also gave a pest or weed control at 80 g/ha (VIOTR [9]) of 100%, a pest or weed control at 80 g/ha (PHBPU [10]) of 100% and a pest or weed control at 80 g/ha (ABUTH [11]) of 100%. The pest or weed control at 20 g/ha (ABUTH [11]) was 100%, the pest or weed control at 5 g/ha (PHBPU [12]; dosage 5 g/ha) was 90% and the pest or weed control at 20 g/ha (PHBPU [12]; dosage 20 g/ha) was 100%. The pest or weed control at 20 g/ha (VERPE [13]) was 80%, the pest or weed control at 5 g/ha (ABUTH [14]) was 90% and the pest or weed control at 20 g/ha (ABUTH [14]) was 100%. The pest or weed control at 5 g/ha (MATIN [15]; dosage 5 g/ha) was 80% and the pest or weed control at 20 g/ha (MATIN [15]; dosage 20 g/ha) was 90%.
In the case of `CCn1nnnc1NC(=O)c1ccc(C(F)F)c(C(=O)NC2CC2)c1Br` [Example 2-227], the pest or weed control at 80 g/ha (ECHCG [1]) is reported as 100%, the pest or weed control at 20 g/ha (DIGSA [2]) is reported as 90% and the pest or weed control at 80 g/ha (DIGSA [2]) is reported as 100%. The pest or weed control at 20 g/ha (DIGSA [3]) was 100%, the pest or weed control at 20 g/ha (SETVI) was 100% and the pest or weed control at 80 g/ha (SETVI) was 100%. It also gave a pest or weed control at 80 g/ha (AVEFA) of 90%, a pest or weed control at 20 g/ha (AMARE [4]) of 100% and a pest or weed control at 80 g/ha (AMARE [4]) of 100%. For the same compound, the pest or weed control at 80 g/ha (ALOMY; 80 g/ha, scored visually after 3 weeks vs untreated controls (100% = plants have died, 0% = like control plants)) was 100%, the pest or weed control at 20 g/ha (ALOMY; 20 g/ha, scored visually after 3 weeks, 100% = plants have died, 0% = like control plants) was 80% and the pest or weed control at 5 g/ha (VIOTR [5]; 5 g/ha) was 90%. The pest or weed control at 20 g/ha (VIOTR [5]) was 100%, the pest or weed control at 20 g/ha (MATIN [6]) was 100% and the pest or weed control at 80 g/ha (MATIN [6]) was 100%. The pest or weed control at 20 g/ha (ECHCG [7]) was 80%, the pest or weed control at 80 g/ha (VERPE [8]) was 100% and the pest or weed control at 20 g/ha (VIOTR [9]) was 100%. The pest or weed control at 80 g/ha (VIOTR [9]) was 100%, the pest or weed control at 80 g/ha (PHBPU [10]) was 90% and the pest or weed control at 80 g/ha (ABUTH [11]) was 100%. It also gave a pest or weed control at 20 g/ha (ABUTH [11]) of 100%, a pest or weed control at 20 g/ha (AMARE [16]) of 100% and a pest or weed control at 20 g/ha (VERPE [13]) of 80%. It also gave a pest or weed control at 5 g/ha (ABUTH [14]) of 100% and a pest or weed control at 20 g/ha (ABUTH [14]) of 100%.
